Experimental data reported in patent publication US20240165154A1, “METHODS AND AGENTS FOR MODULATING ADOPTIVE IMMUNOTHERAPY” (The Regents of the University of California, priority 2021, published 2024).

Tests used:
[1] = tested on: B16 melanoma cell line constitutively expressing GFP; experiment: B16 melanoma proliferation/survival assay in HG, LG, LG+C (GFP positivity as proxy for viability); format: cell-based; conditions: starvation (low glucose, LG) conditions + cellobiose (+C)
From the text: The protocol for proliferation of the B16 melanoma tumor cell line (FIG. 19) constitutively expressing GFP is identical to the other proliferation assays described above, minus the prior transfection with plasmids.
In order to study the effects of cellobiose on tumors, the high glucose (HG), low glucose (LG), and low glucose+cellobiose (LG+C) in vitro studies of FIGS. 18A-18B were repeated using a B16 melanoma cell line constitutively expressing GFP.

[2] = after intravenous infusion; cited from earlier work
[3] = tested on: CD8+ T cells from spleens of BL/6J mice; experiment: T cell proliferation assay (CELLTRACE Violet) of MSCV-transduced CD8+ T cells in metabolic conditions; format: cell-based, mouse; conditions: 48 hr
Description: Spleens from BL/6J mice (Jackson Laboratory #000664; https://www.jax.org/strain/000664) were harvested, minced, resuspended in fluorescence-activated cell sorting (FACS) buffer (phosphate buffered saline (PBS)+2% fetal bovine serum (FBS)+1 mM ethylene diamine tetra-acetic acid (EDTA) (THERMOFISHER SCIENTIFIC™, #15575020)), and strained through a 40-micron nylon mesh filter (Millipore Sigma, CLS431750-50EA). The cellular suspension was then centrifuged at 600× g for 10 minutes before isolating CD8+ T cells using standard protocol from an immunomagnetic separation kit (EASYSEP™ Mouse CD8+ T Cell Isolation Kit, STEMCELL™ Technologies, #19853).
For activation, 5×10^6 stained CD8+ T cells were resuspended in 1 mL of complete T cell medium (RPMI 1640+10% fetal bovine serum (FBS)+1 mM Na Pyruvate+10 mM 4-(2-hydroxyethyl)-1-piperazineethanesulfonic acid (HEPES)+1% penicillin/streptomycin (pen/strep)+0.1% beta-mercaptoethanol) supplemented with 2 ug/mL anti-CD28 clone 37.51 (BIOXCELL™, #BE0015-1) and plated into one well of a 12 well plate coated with 10 micrograms/mL (μg/mL) of anti-CD3e clone 2C11 (BIOXCELL™, #BE0001-1). 24 hours later, plates were lightly spun down at 100× g for 2 minutes, before removing 800 ul of supernatant. 1 mL of T cell media containing concentrated virus was then overlaid, before centrifugation at 800×g for 1 hour at 32C (32° C.). […]

For `O=C[C@H](O)[C@@H](O)[C@H](O[C@@H]1O[C@H](CO)[C@@H](O)[C@H](O)[C@H]1O)[C@H](O)CO` [cellobiose], the “B16 melanoma tumor survival (GFP positivity as proxy for cell viability)” value [1] is given as “did not promote B16 melanoma tumor survival”, the “excretion in the urine” value [2] is given as “vast majority of cellobiose is excreted in the urine” and the “T-cell proliferation (CELLTRACE VIOLET) of mCh+ GFP+ cells co-transduced with CDT-1 and GH1-1” value ([3]; low glucose + cellobiose (LG+C) vs low glucose) is given as “rescued T-cell proliferation”. The “wild-type (WT) T-cell proliferation” value ([3]; low glucose environment when cellobiose was added) was “minor increase”.
